This note sets out measurements from ChEMBL document CHEMBL4417636, “Small molecule inhibitors of pendrin ion exchange and pharmaceutical compositions” (2017).

In assay [1] the target is T1, Pendrin (Homo sapiens) (UniProt O43511).
T1 sequence (whole entry): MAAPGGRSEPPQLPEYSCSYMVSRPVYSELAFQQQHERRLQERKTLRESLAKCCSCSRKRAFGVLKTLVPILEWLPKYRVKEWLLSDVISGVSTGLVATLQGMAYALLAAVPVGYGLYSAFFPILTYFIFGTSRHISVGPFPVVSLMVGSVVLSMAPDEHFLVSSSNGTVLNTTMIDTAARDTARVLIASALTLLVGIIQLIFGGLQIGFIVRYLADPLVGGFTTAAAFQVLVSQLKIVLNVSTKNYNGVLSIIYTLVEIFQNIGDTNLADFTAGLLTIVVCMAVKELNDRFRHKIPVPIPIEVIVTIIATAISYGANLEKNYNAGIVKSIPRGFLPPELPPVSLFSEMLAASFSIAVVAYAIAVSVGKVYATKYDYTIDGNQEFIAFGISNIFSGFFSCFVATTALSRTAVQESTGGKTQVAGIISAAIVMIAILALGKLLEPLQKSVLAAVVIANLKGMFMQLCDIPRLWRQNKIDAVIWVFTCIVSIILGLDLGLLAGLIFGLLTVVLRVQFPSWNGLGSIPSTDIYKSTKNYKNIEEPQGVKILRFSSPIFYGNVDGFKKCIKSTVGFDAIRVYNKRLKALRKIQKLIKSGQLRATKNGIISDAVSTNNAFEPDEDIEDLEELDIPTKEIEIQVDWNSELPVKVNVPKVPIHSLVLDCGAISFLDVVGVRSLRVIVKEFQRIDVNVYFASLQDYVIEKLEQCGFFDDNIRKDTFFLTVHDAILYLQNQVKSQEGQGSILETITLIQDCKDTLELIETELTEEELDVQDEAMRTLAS
Nature of the assay: Inhibition of human pendrin expressed in FRT cells co-expressing EYFP-HIF assessed as reduction in pendrin-mediated C17HCO3(-) exchange by measuring reduction in cytoplasmic alkalinization exchange at 2.5 uM by pH-sensitive fluorescent probe BCECF-AM based fluorescence assay relative to control. It is filed as cell-based.

Assay [2] is filed under the species Homo sapiens. Briefly: Inhibition of ENaC in human bronchial epithelial cells assessed as effect on short-circuit current at 25 uM pre-incubated for 30 mins.
Assay [3] is filed under the species Homo sapiens. Nature of the assay: Inhibition of CaCC in human bronchial epithelial cells assessed as effect on short-circuit current at 25 uM pre-incubated for 30 mins.
For assay [4], the target named is T2, Chloride anion exchanger (Homo sapiens) (UniProt P40879).
T2 sequence (whole entry): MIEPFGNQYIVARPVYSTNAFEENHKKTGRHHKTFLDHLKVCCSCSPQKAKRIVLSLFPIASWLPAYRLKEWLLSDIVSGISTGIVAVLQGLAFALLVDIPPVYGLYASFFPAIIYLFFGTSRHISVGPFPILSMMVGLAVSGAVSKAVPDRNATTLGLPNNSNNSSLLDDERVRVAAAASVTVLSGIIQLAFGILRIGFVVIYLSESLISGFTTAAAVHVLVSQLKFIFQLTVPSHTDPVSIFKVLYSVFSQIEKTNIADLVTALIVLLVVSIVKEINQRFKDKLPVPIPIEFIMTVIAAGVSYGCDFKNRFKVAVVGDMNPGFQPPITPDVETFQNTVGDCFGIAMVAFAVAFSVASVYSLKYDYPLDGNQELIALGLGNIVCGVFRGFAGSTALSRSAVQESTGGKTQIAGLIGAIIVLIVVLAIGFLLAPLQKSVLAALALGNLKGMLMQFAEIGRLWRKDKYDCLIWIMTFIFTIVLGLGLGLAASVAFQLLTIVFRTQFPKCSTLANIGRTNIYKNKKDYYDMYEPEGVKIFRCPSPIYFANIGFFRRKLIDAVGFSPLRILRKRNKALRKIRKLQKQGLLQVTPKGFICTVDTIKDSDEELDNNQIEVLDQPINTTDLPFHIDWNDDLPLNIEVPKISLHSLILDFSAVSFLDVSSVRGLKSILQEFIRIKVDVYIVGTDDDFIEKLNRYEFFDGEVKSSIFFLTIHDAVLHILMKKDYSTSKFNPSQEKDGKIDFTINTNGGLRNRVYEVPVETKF
Nature of the assay: Inhibition of human SLC26A3 expressed in COS7 co-expressing EYFP-HIF assessed as reduction in SCN gradient.

For assay [5], the target named is T1, Pendrin (Homo sapiens). Nature of the assay: Inhibition of pendrin in IL13-stimulated human bronchial epithelial cells assessed as reduction in gluconate gradient-induced intracellular alkalization at 25 uM. Format: cell-based.
Assay [6] is filed under the species Homo sapiens. Nature of the assay: Effect on airway surface liquid pH in NHBE cells at 25 uM by pH-sensitive fluorophore BCECF based fluorescence based assay. Format: functional, cell-based.
Assay [7] is filed under the species Homo sapiens. Briefly: Effect on airway surface liquid pH in IL13-stimulated NHBE cells at 25 uM by pH-sensitive fluorophore BCECF based fluorescence based assay. Format: functional, cell-based.
The species entered for assay [8] is Homo sapiens. Briefly: Effect on airway surface liquid pH in IL13-stimulated human CFBE at 25 uM by pH-sensitive fluorophore BCECF based fluorescence based assay. It is filed as functional.
The target in another assay is T3, Pendrin (Homo sapiens, UniProt O43511).
T3 sequence (O43511 whole entry): T1 sequence (whole entry)
Briefly: Inhibition of human pendrin expressed in FRT cells co-expressing EYFP-HIF assessed as reduction in pendrin-mediated C17F exchange incubated for 10 mins by pH-sensitive fluorescent probe BCECF-AM based fluorescence assay relative to control. Format: cell-based.

The test system of assay [9] is Mus musculus. Briefly: Potentiation of 20 mg/kg, ip furosemide-induced acute diuretic action in CD1 mouse assessed as effect on urine pH at 50 mg/kg, ip relative to control. It is filed as functional, organism-based.
For assay [10], the system named is Mus musculus. Nature of the assay: Potentiation of 20 mg/kg, ip furosemide-induced acute diuretic action in CD1 mouse assessed as induction of metabolic alkalosis at 10 mg/kg, ip. It is filed as functional, organism-based.
In assay [11] the test system is Mus musculus. Nature of the assay: Potentiation of 20 mg/kg, ip furosemide-induced acute diuretic action in CD1 mouse assessed as effect on urinary K+ excretion at 10 mg/kg, ip measured at 3 hrs relative to control. It is filed as functional, organism-based.

Activity calls are given as the source filed them. The rule behind the calls is not given here.

Take `Cn1nc(COc2cccc(F)c2)c2c1CCN(C(=O)Nc1ccc(Cl)cc1)C2`: the inhibition on Pendrin (Homo sapiens) [1] is 50%. Also, the inhibition entry (in the assay listed under Homo sapiens [2]; in the assay filed under Homo sapiens [3]; in assay [4]) was “inactive” each time. Besides, on Pendrin (Homo sapiens) [5], the inhibition result was “Active”. Further, the result in the assay listed under Homo sapiens [6], in the assay filed under Homo sapiens [7] and in the assay filed under Homo sapiens [8] was inactive.

Consider `Cc1n[nH]c(-c2cc(S(=O)(=O)NC3CCCc4ccccc43)c(C)s2)c1C` (configuration not stated), for which the IC50 on Pendrin was determined as 9 µM. Also, the result with Mus musculus [9] and in the assay on Mus musculus [11] was inactive. Moreover, the outcome in the assay with Mus musculus [10] was Active.
